Assay results published in patent publication US11618747B2, “LXR modulators with bicyclic core moiety” (OrsoBio, Inc., priority 2018, dated 2023).

test system: not listed separately; assay: Short term HFD mouse model: plasma and liver exposure; type: in vivo, mice (C57BL/6J); settings: HFD mice, three oral doses of 10 mg/kg, 4 h after last dose
Experimental: Short Term HFD Mouse Model:
The in vivo transcriptional regulation of several LXR target genes by LXR modulators was assessed in mice.
For this, C57BL/6J were purchased from Elevage Janvier (Rennes, France) at the age of 8 weeks. After an acclimation period of two weeks, animals were preferred on a high fat diet (HFD) (Ssniff Spezialdiäten GmbH, Germany, Surwit EF D12330 mod, Cat. No. E15771-34), with 60 kcal % from fat plus 1% (w/w) extra cholesterol (Sigma-Aldrich, St. Louis, Mo.) for 5 days. Animals were maintained on this diet during treatment with LXR modulators. The test compounds were formulated in 0.5% hydroxypropylmethylcellulose (HPMC) and administered in three doses (from 1.5 to 20 mg/kg each) by oral gavage according to the following schedule: on day one, animals received treatment in the morning and the evening (ca. 17:00), on day two animals received the final treatment in the morning after a 4 h fast and were sacrificed 4 h thereafter. Animal work was conducted according to the national guidelines for animal care in Germany.
Upon termination, liver was collected, dipped in ice cold PBS for 30 seconds and cut into appropriate pieces. Pieces were snap frozen in liquid nitrogen and stored at −80° C. For the clinical chemistry analysis from plasma, alanine aminotransferase (ALT, IU/mL), cholesterol (CHOL, mg/dL) and triglycerides (TG, mg/dL) were determined using a fully-automated bench top analyzer (Respons®910, DiaSys Greiner GmbH, Flacht, Germany) with system kits provided by the manufacturer.

Structure (SMILES) | liver exposure 4 h | liver/plasma ratio 4 h | plasma exposure 4 h
N#Cc1cccnc1-c1c(-c2cccc(-c3ccc(C(=O)O)cc3Cl)c2)n(S(=O)(=O)c2ccc(C(F)F)cc2)c2ccc(F)cc12 [11/26] | C (1 μM to ≤10 μM) | C (30 to ≤100) | C (C: 100 nM to <300 nM)
N#Cc1cccc(C#N)c1-c1c(-c2cccc(-c3ccc(C(=O)O)cc3Cl)c2)n(S(=O)(=O)c2ccc(C(F)(F)F)nc2)c2ccc(F)cc12 [11/37] | C (1 μM to ≤10 μM) | C (30 to ≤100) | D (D: <100 nM)
N#Cc1cccc(C#N)c1-c1c(-c2cccc(-c3ccc(C(=O)O)cc3F)c2)n(S(=O)(=O)c2ccc(C(F)F)cc2)c2ccc(F)cc12 [11/51] | C (1 μM to ≤10 μM) | C (30 to ≤100) | D (D: <100 nM)
N#Cc1cccc(C#N)c1-c1c(-c2cccc(-c3c(F)cc(C(=O)O)cc3F)c2)n(S(=O)(=O)c2ccc(C(F)F)cc2)c2ccc(F)cc12 [11/53] | C (1 μM to ≤10 μM) | C (30 to ≤100) | D (D: <100 nM)
N#Cc1cccc(C#N)c1-c1c(-c2cccc(-c3ccc(C(=O)O)cc3Cl)c2)n(S(=O)(=O)C2CCC(F)(F)CC2)c2ccc(F)cc12 [11/63] | C (1 μM to ≤10 μM) | B (5 to ≤30) | D (D: <100 nM)
N#Cc1cccc(C#N)c1-c1c(-c2cccc(-c3cc(F)c(C(=O)O)cc3Cl)c2)n(S(=O)(=O)c2ccc(C(F)F)cc2)c2ccc(F)cc12 [11/65] | C (1 μM to ≤10 μM) | C (30 to ≤100) | D (D: <100 nM)
N#Cc1cccc(C#N)c1-c1c(-c2cccc(-c3ccc(C(=O)NCC(=O)O)cc3Cl)c2)n(S(=O)(=O)c2ccc(C(F)F)cc2)c2ccc(F)cc12 [21/3] | C (1 μM to ≤10 μM) | D (>100) | D (D: <100 nM)

same assay, conditions: HFD mice, three oral doses of 20 mg/kg, 4 h after last dose

Structure (SMILES) | liver exposure 4 h | liver/plasma ratio 4 h | plasma exposure 4 h
O=C(O)c1ccc(-c2cccc(-c3c(-c4c(Cl)cccc4Cl)c4cc(F)ccc4n3S(=O)(=O)c3ccc(C(F)F)cc3)c2)c(Cl)c1 [11/13] | C (1 μM to ≤10 μM) | A (<5) | A (A: >1 μM)
N#Cc1sccc1-c1c(-c2cccc(-c3ccc(C(=O)O)cc3Cl)c2)n(S(=O)(=O)c2ccc(C(F)(F)F)nc2)c2ccc(F)cc12 [11/16] | C (1 μM to ≤10 μM) | B (5 to ≤30) | C (C: 100 nM to <300 nM)
O=C(O)c1ccc(-c2cccc(-c3c(-c4ncccc4C(F)(F)F)c4cc(F)ccc4n3S(=O)(=O)c3ccc(C(F)F)cc3)c2)c(Cl)c1 [11/23] | C (1 μM to ≤10 μM) | B (5 to ≤30) | C (C: 100 nM to <300 nM)
COc1c(C(=O)O)ccc(-c2cccc(-c3c(-c4ccccc4C#N)c4cc(F)ccc4n3S(=O)(=O)c3ccc(C(F)F)cc3)c2)c1Cl [11/27] | C (1 μM to ≤10 μM) | C (30 to ≤100) | D (D: <100 nM)
N#Cc1ccccc1-c1c(-c2cccc(-c3ccc(C(=O)O)cc3Cl)c2)n(S(=O)(=O)c2ccc(C(F)F)cc2)c2ccc(F)cc12 [11/33] | C (1 μM to ≤10 μM) | C (30 to ≤100) | C (C: 100 nM to <300 nM)
N#Cc1ccccc1-c1c(-c2cccc(-c3ccc(C(=O)O)cc3Cl)c2)n(S(=O)(=O)c2ccc(C(F)F)cc2)c2cnccc12 [11/49] | C (1 μM to ≤10 μM) | D (>100) | D (D: <100 nM)
Cc1ccc(S(=O)(=O)n2c(-c3cccc(-c4ccc(C(=O)O)cc4)c3)c(-c3ccsc3C#N)c3cc(F)ccc32)cc1C [23/2] | A (<300 nM) | A (<5) | C (C: 100 nM to <300 nM)

biological target: T1, LXRβ ligand-binding domain (Homo sapiens, UniProt P55055, DUP175-175); assay: TR-FRETβ activity assay (NCoA3 coactivator peptide recruitment); type: biochemical; settings: 1 μM 24(S)-25-epoxycholesterol as prestimulating agonist
T1 construct: amino acids 156-461; NP009052; made in house; host or cells: E. coli
T1 sequence (P55055 with tags, fused parts or gaps DUP175-175 limits assumed): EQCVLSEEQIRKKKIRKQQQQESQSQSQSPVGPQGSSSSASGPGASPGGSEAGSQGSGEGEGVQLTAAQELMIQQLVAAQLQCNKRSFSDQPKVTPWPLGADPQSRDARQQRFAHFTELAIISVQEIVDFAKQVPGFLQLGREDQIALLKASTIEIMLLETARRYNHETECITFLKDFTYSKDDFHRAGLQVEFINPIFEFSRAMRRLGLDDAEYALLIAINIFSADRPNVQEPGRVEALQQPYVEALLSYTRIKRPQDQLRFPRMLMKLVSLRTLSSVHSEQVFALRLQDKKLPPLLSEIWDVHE
Summary of the method: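 GST-tagged human LXRβ LBD (aa 156-461, E. coli) at 76 nM with 400 nM biotinylated NCoA3 peptide in Tris/HCl pH 6.8, 240 mM KCl, BSA, 0.002% Triton-X-100, plus 1 μM 24(S)-25-epoxycholesterol as prestimulating agonist. Compounds at 50 μM down to 0.002 μM, 1 h at 4 °C. Coactivator recruitment by TR-FRET (Tb cryptate/XL665, 615/665 nm), triplicates.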

Structure (SMILES) | FRETβ efficacy (value in brackets) [%]
N#Cc1ccccc1-c1c(-c2cccc(-c3ccc(C(=O)O)cc3Cl)c2)n(S(=O)(=O)c2ccc(C(F)F)cc2)c2ccc(F)cc12 [11/33] | −99

same assay, conditions: 1 μM 24(S)-25-epoxycholesterol as prestimulating agonist; read-out: FRETβ potency

Structure (SMILES) | EC50 [nM]
N#Cc1ccccc1-c1c(-c2cccc(-c3ccc(C(=O)O)cc3Cl)c2)n(S(=O)(=O)c2ccc(C(F)F)cc2)c2ccc(F)cc12 [11/33] | 19

same assay, conditions: TR-FRET, 1 μM 24(S)-25-epoxycholesterol prestimulation; read-out: FRETβ (EC50 range)

Structure (SMILES) | EC50 [nM]
O=C(O)c1ccc(-c2cccc(-c3c(-c4c(Cl)cccc4Cl)c4cc(F)ccc4n3S(=O)(=O)c3ccc(C(F)F)cc3)c2)c(Cl)c1 [11/13] | < 100
N#Cc1sccc1-c1c(-c2cccc(-c3ccc(C(=O)O)cc3Cl)c2)n(S(=O)(=O)c2ccc(C(F)(F)F)nc2)c2ccc(F)cc12 [11/16] | 100 to 1000
O=C(O)c1ccc(-c2cccc(-c3c(-c4ncccc4C(F)(F)F)c4cc(F)ccc4n3S(=O)(=O)c3ccc(C(F)F)cc3)c2)c(Cl)c1 [11/23] | < 100
N#Cc1cccnc1-c1c(-c2cccc(-c3ccc(C(=O)O)cc3Cl)c2)n(S(=O)(=O)c2ccc(C(F)F)cc2)c2ccc(F)cc12 [11/26] | < 100
COc1c(C(=O)O)ccc(-c2cccc(-c3c(-c4ccccc4C#N)c4cc(F)ccc4n3S(=O)(=O)c3ccc(C(F)F)cc3)c2)c1Cl [11/27] | < 100
N#Cc1ccccc1-c1c(-c2cccc(-c3ccc(C(=O)O)cc3Cl)c2)n(S(=O)(=O)c2ccc(C(F)F)cc2)c2ccc(F)cc12 [11/33] | < 100
N#Cc1cccc(C#N)c1-c1c(-c2cccc(-c3ccc(C(=O)O)cc3Cl)c2)n(S(=O)(=O)c2ccc(C(F)(F)F)nc2)c2ccc(F)cc12 [11/37] | < 100
N#Cc1ccccc1-c1c(-c2cccc(-c3ccc(C(=O)O)cc3Cl)c2)n(S(=O)(=O)c2ccc(C(F)F)cc2)c2cnccc12 [11/49] | < 100
N#Cc1cccc(C#N)c1-c1c(-c2cccc(-c3ccc(C(=O)O)cc3F)c2)n(S(=O)(=O)c2ccc(C(F)F)cc2)c2ccc(F)cc12 [11/51] | < 100
N#Cc1cccc(C#N)c1-c1c(-c2cccc(-c3c(F)cc(C(=O)O)cc3F)c2)n(S(=O)(=O)c2ccc(C(F)F)cc2)c2ccc(F)cc12 [11/53] | < 100
N#Cc1cccc(C#N)c1-c1c(-c2cccc(-c3ccc(C(=O)O)cc3Cl)c2)n(S(=O)(=O)C2CCC(F)(F)CC2)c2ccc(F)cc12 [11/63] | 100 to 1000
N#Cc1cccc(C#N)c1-c1c(-c2cccc(-c3cc(F)c(C(=O)O)cc3Cl)c2)n(S(=O)(=O)c2ccc(C(F)F)cc2)c2ccc(F)cc12 [11/65] | < 100
N#Cc1cccc(C#N)c1-c1c(-c2cccc(-c3ccc(C(=O)NCC(=O)O)cc3Cl)c2)n(S(=O)(=O)c2ccc(C(F)F)cc2)c2ccc(F)cc12 [21/3] | < 100
Cc1ccc(S(=O)(=O)n2c(-c3cccc(-c4ccc(C(=O)O)cc4)c3)c(-c3ccsc3C#N)c3cc(F)ccc32)cc1C [23/2] | 100 to 1000
